The test system of assay [1] is Alport mice. Kind of assay: transmission electron microscopy of glomerular basement membrane of treated Alport mice. As to conditions: Alport mice treated with MMP inhibitor from 4 to 7 weeks of age, electron microscopy. Type of assay: in vivo, mouse. As for the experimental part:
The Alport mouse model has been described (Cosgrove et al. (1996) Genes Dev. 10, 2981-2992). The control mice used were normal for both collagen α3(IV) alleles, and are a product of double heterozygote crosses for the Alport mutation. The use of animals in this study was performed in accordance with an approved institutional IACUC protocol. Extreme care was taken to minimize pain and discomfort suffered by the mice. MMP inhibitors were administered between 4 and 7 weeks of age. All drugs were freshly prepared prior to administration. BAY 129566 was emulsified in suspension with 0.5% carboxymethyl cellulose and 4 mg given once a day by oral gavage. MMI-270 was solubilized in 0.9% saline and administered by I.P. injection (50 μg/g body weight) once a day. Transmission electron microscopy was performed as previously described (Cosgrove et al., 1996, Genes Dev. 10, 2981-2992). Ultrastructural localization studies of type IV collagen were performed essentially as previously described (Bhattacharya et al., 2002). Kidneys from 7-week-old control and Alport mice were fixed by heart perfusion with 2% paraformaldehyde in PBS, and post-fixed in this same solution overnight. Ultrathin (70 nm) sections were reacted for 4 hours at room temperature with goat anti-collagen IV antibodies (Southern Biotechnology, Birmingham, Ala.). After six 10 minute washes in PBS, specimen were reacted for 2 hours at room temperature with 10 nanometers (nm) gold-conjugated anti-rabbit antibodies (Vector Laboratories, Burlingame, Calif.). Grids were washed as before, air-dried, counterstained with uranyl acetate, and examined using transmission electron microscopy. Propagermanium (3-oxygemylpropinic acid polymer, Sanwa Kagaku Kenkyusho Co., Nagoya, Japan) was administered orally (10 milligrams per kilogram (mg/kg) in 1% gelatin) by gavage once daily starting at 5 weeks of age, and kidneys harvested at 7 weeks of age. Three animals per group, Alport mice and control litter mates, gavaged with drug or vehicle only, were analyzed. […] Proteolytic degradation of the GBM in Alport syndrome might underlie the progressive irregular GBM damage and podocyte foot process effacement. Type IV collagen from Alport kidneys is more susceptible to proteolytic degradation in vitro than type IV collagen from healthy kidneys (Kalluri et al. (1997) J. Clin. Invest. 99, 2470-2478, presumably owing to the reduced number of interchain disulfide crosslinks (Gunwar et al. (1998) J. Biol. Chem. 273, 8767-8775).

Another assay concerns the target MMP-9 (Homo sapiens, UniProt P14780). The settings on record: hydrochloride monohydrate; cited from earlier work.
The target in a further assay is T1, MMP-2 (Homo sapiens, UniProt P08253).
T1 sequence (P08253 110-660): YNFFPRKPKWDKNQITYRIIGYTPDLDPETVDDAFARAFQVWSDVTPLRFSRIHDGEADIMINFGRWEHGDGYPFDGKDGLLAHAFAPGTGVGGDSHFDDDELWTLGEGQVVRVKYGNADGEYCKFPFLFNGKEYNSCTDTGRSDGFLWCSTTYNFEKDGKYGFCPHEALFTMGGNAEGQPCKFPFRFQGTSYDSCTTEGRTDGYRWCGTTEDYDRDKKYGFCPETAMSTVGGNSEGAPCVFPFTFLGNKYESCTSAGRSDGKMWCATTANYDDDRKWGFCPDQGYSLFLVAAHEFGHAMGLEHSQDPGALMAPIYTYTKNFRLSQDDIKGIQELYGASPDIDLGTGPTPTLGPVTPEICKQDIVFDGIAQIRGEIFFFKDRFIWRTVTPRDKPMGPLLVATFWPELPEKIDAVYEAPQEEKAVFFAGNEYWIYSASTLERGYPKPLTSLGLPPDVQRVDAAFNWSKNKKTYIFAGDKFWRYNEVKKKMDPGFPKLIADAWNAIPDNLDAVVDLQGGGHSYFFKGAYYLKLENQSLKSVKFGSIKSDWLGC
The settings on record: hydrochloride monohydrate; cited from earlier work.

The next assay has as its system wide range of MMPs. As to conditions: in vitro; cited from earlier work.
The target of the next assay is MMP-3 (Homo sapiens, UniProt P08254). As to conditions: hydrochloride monohydrate; cited from earlier work.
Assay [2] concerns Alport mice. Kind of assay: proteinuria by gel electrophoresis of urine of treated Alport mice. As to conditions: for proteinuria: Alport mice treated from 4 to 7 weeks of age, MMI-270 50 μg/g I.P.; for progression of proteinuria: Alport mice treated from 6 to 7 weeks of age (advanced disease). Type of assay: in vivo, mouse. The method, then: Proteinuria was analyzed by gel electrophoresis. (A) One half microliter of urine from control mice (lane 2), MMI 270-treated normal control mice (lane 3), MMI 270-treated Alport mice (injected […] with 50 μg/g of NMI 270) (lane 4), and untreated Alport mice (lane 5) was fractionated on a 10% PAGE gel, stained with Coomassie blue, and destained. Molecular weight markers are shown in lane 1. […] Urine was collected and analyzed as in (A). Lane 1, 6 week old control; lane 2, 6 week old Alport; lane 3, 7 week old control; lanes 4 and 5, 7 week old Alport; lanes 6 and 7, 7 week old Alport treated with MMI-270 from 6 to 7 weeks of age. Molecular weight markers are shown in lane 1. The Alport mouse model has been described (Cosgrove et al. (1996) Genes Dev. 10, 2981-2992). The control mice used were normal for both collagen α3(IV) alleles, and are a product of double heterozygote crosses for the Alport mutation. The use of animals in this study was performed in accordance with an approved institutional IACUC protocol. Extreme care was taken to minimize pain and discomfort suffered by the mice. MMP inhibitors were administered between 4 and 7 weeks of age. All drugs were freshly prepared prior to administration. BAY 129566 was emulsified in suspension with 0.5% carboxymethyl cellulose and 4 mg given once a day by oral gavage. MMI-270 was solubilized in 0.9% saline and administered by I.P. injection (50 μg/g body weight) once a day. To assess the effect of these two compounds on Alport renal disease progression, Alport mice were administered either MMI 270 or BAY 129566 from 4 to 7 weeks of age. The animals were transcardially perfused with PBS and the kidneys harvested. Cryosections were analyzed by immunofluorescence microscopy to assess for the degree of glomerular and tubulointerstitial damage using antibodies specific for collagen IV α1 and α2 chains, and fibronectin.

The mark [3] stands for this setting: listed as MMI-270, hydrochloride monohydrate.
Setting [4] is: listed as NMI 270, hydrochloride monohydrate.

Entries after “also recorded” stand apart in the source; their conditions may differ. Structures can show the parent of a compound that is named as a salt.

MMP-3, sequence (P08254 100-477, species assumed): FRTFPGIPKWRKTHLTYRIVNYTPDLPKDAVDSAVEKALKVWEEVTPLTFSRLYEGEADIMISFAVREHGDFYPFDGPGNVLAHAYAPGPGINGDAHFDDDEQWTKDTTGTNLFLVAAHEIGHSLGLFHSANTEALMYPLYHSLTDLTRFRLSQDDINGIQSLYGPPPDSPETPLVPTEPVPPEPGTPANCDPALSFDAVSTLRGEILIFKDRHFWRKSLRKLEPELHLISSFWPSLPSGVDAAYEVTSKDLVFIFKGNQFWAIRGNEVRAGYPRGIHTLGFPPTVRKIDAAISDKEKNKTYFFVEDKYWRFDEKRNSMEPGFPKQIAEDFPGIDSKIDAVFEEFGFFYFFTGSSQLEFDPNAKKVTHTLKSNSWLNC
MMP-9, sequence (P14780 94-707, species assumed): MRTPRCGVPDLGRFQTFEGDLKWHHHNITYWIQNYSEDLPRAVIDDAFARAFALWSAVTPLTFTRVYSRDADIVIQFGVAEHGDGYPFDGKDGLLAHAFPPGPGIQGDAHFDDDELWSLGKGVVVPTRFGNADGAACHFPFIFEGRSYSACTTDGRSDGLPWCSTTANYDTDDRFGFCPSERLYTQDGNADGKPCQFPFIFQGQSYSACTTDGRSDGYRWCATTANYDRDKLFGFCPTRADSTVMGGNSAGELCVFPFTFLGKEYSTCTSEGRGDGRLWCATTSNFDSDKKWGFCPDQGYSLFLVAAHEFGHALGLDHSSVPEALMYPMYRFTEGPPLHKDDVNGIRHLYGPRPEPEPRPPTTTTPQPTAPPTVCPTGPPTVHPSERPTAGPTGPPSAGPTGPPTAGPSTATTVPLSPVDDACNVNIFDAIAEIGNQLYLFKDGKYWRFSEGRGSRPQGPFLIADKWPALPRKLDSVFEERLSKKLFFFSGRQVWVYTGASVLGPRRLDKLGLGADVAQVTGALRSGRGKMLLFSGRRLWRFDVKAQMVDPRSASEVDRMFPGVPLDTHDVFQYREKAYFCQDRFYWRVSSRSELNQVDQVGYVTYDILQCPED

As for `COc1ccc(S(=O)(=O)N(Cc2cccnc2)[C@@H](C(=O)NO)C(C)C)cc1` [MMI 270, N-hydroxy-2(R)-[(4-methoxysulfonyl)(3-picolyl)amino]-3-methylbutaneamide hydrochloride monohydrate], the “glomerular basement membrane architecture” value in the assay with Alport mice [1] (hydrochloride monohydrate) is “near complete restoration of normal glomerular basement membrane architecture; also recorded: prevents or reverses GBM damage”; with Alport mice [1] (setting [3]) it was “largely restored GBM ultrastructure and function; also recorded: markedly improved glomerular basement membrane architecture”; in the assay on Alport mice [1] (setting [4]), “markedly improved GBM ultrastructure”. Further, the “MMP inhibitory effect, MMP-9” value at MMP-9 was “inhibits”. Moreover, on MMP-2, the “MMP inhibitory effect, MMP-2” value is “inhibits”. Besides, the “concentrations inhibiting activity of a wide range of MMPs” value in the assay on wide range of MMPs is on record as “nM concentrations”. The “MMP inhibitory effect, MMP-3” value on MMP-3 is “inhibits”. Moreover, the proteinuria result in the assay with Alport mice [2] (hydrochloride monohydrate) was “arrests (and may reverse) progressive loss of glomerular function”; in the assay on Alport mice [2] (setting [3]), “dramatic reduction”; in the assay on Alport mice [2] (setting [4]), “drastically reduced”. Further, the progression of proteinuria entry in the assay with Alport mice [2] (hydrochloride monohydrate) is listed as “arrests the progressive increase in proteinuria; also recorded: arrested”; with Alport mice [2] (setting [4]) it was “arrested”.

(Values after patent US20080187508A1, “Treatment of Golmerular Basement Membrane Disease Involving Matrix Metalloproteinase-12” (BOYS TOWN NATIONAL RESEARCH HOSPITAL, priority 2004, published 2008).)
